Assay results from US7622475B2, “EP2 agonists” (Pfizer Inc, priority 2006, dated 2009).

Tests used:
[1] = test system: ocular hypertensive non-human primates; assay: IOP change after topical application in ocular hypertensive non-human primates; format: in vivo; conditions: for change in vivo at 0.1 %: Primates, read-out: ΔΔEmax (%); for ΔΔEmax (mm Hg): dosed hypertensive eye vs vehicle
Experimental: Tables 2 and 3 describe the intraocular pressure (IOP) changes that were seen following topical application of EP2 agonists in ocular hypertensive non-human primates. Typically, compounds in suitable formulations were dosed topically and IOP was measured using tonometry. Changes in IOP between vehicle treatment followed by treatment with EP2 compounds were assessed over time in the dosed hypertensive eye. ΔΔ Emax reflects the difference in IOP from EP2 compound-treated eye over that seen for vehicle-treated eye at the timepoint wherein maximum IOP reduction for compound was seen. The percent ΔΔ Emax was the percentage change in IOP reduction conferred by compound over that for vehicle (set at 100%). Tmax represents the time point at which maximum IOP reduction of compound was observed. […] NS represents not significant. Table 2 compares acids of EP2 compound while Table 3 compares IOP response seen with esters of certain acids. Esters provide better corneal penetration and improved drug exposure in the anterior chamber compared to acids and are therefore dosed at ⅕th the dose for acids […].

EP2 = EP2 (Homo sapiens, UniProt P43116); assay: EP2 cAMP EC50 (Table 1); format: cell-based
Sequence of EP2 (P43116 whole entry): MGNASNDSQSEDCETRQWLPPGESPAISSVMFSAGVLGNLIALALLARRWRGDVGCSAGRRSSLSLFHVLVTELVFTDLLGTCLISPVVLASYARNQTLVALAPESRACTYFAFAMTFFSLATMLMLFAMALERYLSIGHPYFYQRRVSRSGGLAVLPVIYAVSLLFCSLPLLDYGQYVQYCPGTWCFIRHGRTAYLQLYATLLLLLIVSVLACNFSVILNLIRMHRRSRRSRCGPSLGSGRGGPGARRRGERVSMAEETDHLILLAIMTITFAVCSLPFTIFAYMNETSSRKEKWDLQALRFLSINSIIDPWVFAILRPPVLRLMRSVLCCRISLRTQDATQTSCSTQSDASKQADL

[2] = Solid form by powder X-ray diffraction; format: physicochemical; conditions: FIG. 1
Experimental: During analysis, the samples were analyzed from angles of 4 to 40 degrees (θ-2θ) using a scan time of 60 seconds and a scan spot size of 0.5 mm.
The X-Ray diffraction peaks, characterized by peak positions and intensity assignments, have been extracted from the X-ray powder diffractogram of Example 1 and comparative compound 12. One of skill in the art will appreciate that the peak positions (2θ) will show some inter-apparatus variability, typically as much as 0.1 degrees. Accordingly, where peak positions (2θ) are reported, one of skill in the art will recognize that such numbers are intended to encompass such inter-apparatus variability.

glaucomatous dogs = assay: IOP change after topical instillation in glaucomatous dogs; format: in vivo; conditions: single 50 μl drop, @ 6 h, drawing 64 […] ([…]), drawing 65 0.1 mg/ml (0.01%)
Experimental: Typically, compounds in suitable formulations were dosed topically and IOP was measured using tonometry. A single 50 μl drop containing either vehicle or drug was instilled in each eye of glaucomatous dogs and IOP was measured at 1, 2, 4, and 6 hours post dose. A baseline IOP measurement was taken prior to topical instillation of vehicle or drug. Changes in IOP between vehicle treatment followed by treatment with EP2 compounds were assessed over time in the glaucomatous dogs. ΔΔ Emax reflects the difference in IOP±standard error from EP2 compound-treated eye over that seen for vehicle-treated eye at the time point wherein maximum IOP reduction for compound was seen. The percent ΔΔ Emax was the percentage change in IOP reduction conferred by compound over that for vehicle (set at 100%).

[3] = molecular target: T1, prostaglandin E2 type 2 (EP2) receptors (Homo sapiens, UniProt P43116); assay: Assay for binding to prostaglandin E2 receptors (3H-prostaglandin E2 displacement, membranes of transfected cells); conditions: displacement of 3H-prostaglandin E2
T1 construct: expressed in transfected cells
T1 sequence (P43116 whole entry): as above
Experimental: All operations are performed at 4° C. […] These are lysed by sonification with a Branson Sonifier (Model #250, Branson Ultrasonics Corporation, Danbury, Conn.) in 2 fifteen second bursts. Unlysed cells and debris are removed by centrifugation at 100×g for 10 min. Membranes are then harvested by centrifugation at 45,000×g for 30 minutes. Pelleted membranes are resuspended to 3-10 mg protein per ml, protein concentration being determined according to the method of Bradford [Bradford, M., Anal. Biochem., 72, 248 (1976)]. Resuspended membranes are then stored frozen at −80° C. until use.
Frozen membranes as prepared are thawed and diluted to 1 mg protein per ml in Buffer A. One volume of membrane preparation is combined with 0.05 volume test compound or buffer and one volume of 3 nM 3H-prostaglandin E2 (#TRK 431, Amersham, Arlington Heights, Ill.) in Buffer A. The mixture (205 μL total volume) is incubated for 1 hour at 25° C. The membranes are then recovered by filtration through type GF/C glass fiber filters (#1 205401, Wallac, Gaithersburg, Md.) using a Tomtec harvester (Model Mach II/96, Tomtec, Orange, Conn.). The membranes with bound 3H-prostaglandin E2 are trapped by the filter, the buffer and unbound 3H-prostaglandin E2 pass through the filter into waste. Each sample is then washed 3 times with 3 ml of [50 mM Tris-HCl (pH 7.4), 10 mM MgCl2, 1 mM EDTA]. The filters are then dried by heating in a microwave oven. To determine the amount of 3H-prostaglandin bound to the membranes, the dried filters are placed into plastic bags with scintillation fluid and counted in a LKB 1205 Betaplate reader (Wallac, Gaithersburg, Md.). IC50s are determined from the concentration of test compound required to displace 50% of the specifically bound 3H-prostaglandin E2.

[4] = topical, acid EP2 agonists, Conc 0.1 %, topical, vs vehicle (set at 100%)
[5] = acid EP2 agonists, Conc 0.1 %, topical
[6] = acid EP2 agonists, Conc 0.1 %, time point of maximum IOP reduction
[7] = acid EP2 agonists, Conc 0.1 %, topical, vs vehicle (set at 100%)
[8] = isopropylesters, OHT primates, time point of maximum IOP reduction

| Compound | EC50 (EP2) [nM] | IC50 [3] [nM] | further results |
| --- | --- | --- | --- |
| CS(=O)(=O)N(CCCOc1cc(Cl)cc(Cl)c1)CCCc1ccc(C(=O)O)s1 | – | – | change in vivo at 0.1 % [1, 4]: -11%; ΔΔEmax (mm Hg) [1, 5]: −4.4 mm Hg; Tmax [1, 6]: 2 h |
| O=C(O)CCCCCCC1C(=O)CC[C@@H]1CCc1cccc(C(F)(F)F)c1 (some centres unmarked) | – | – | change in vivo at 0.1 % [1, 4]: -9%; ΔΔEmax (mm Hg) [1, 5]: −3.7 mm Hg; Tmax [1, 6]: 6 h |
| O=C(O)CCc1cccc(CN(Cc2ccc(-c3cccnc3)cc2)S(=O)(=O)c2cccnc2)c1 | – | – | ΔΔEmax (mm Hg) [1, 5]: ns; ΔΔEmax (%) [1, 7]: ns |
| Cn1cnc(S(=O)(=O)N(Cc2ccc(-c3nccs3)cc2)Cc2cccc(OCC(=O)O)c2)c1 | – | – | ΔΔEmax (mm Hg) [1, 5]: ns; ΔΔEmax (%) [1, 7]: ns |
| O=C(O)CCc1cccc(CN(Cc2ccc(-c3cncnc3)cc2)S(=O)(=O)c2ccccn2)c1 | – | – | ΔΔEmax (mm Hg) [1, 5]: ns; ΔΔEmax (%) [1, 7]: ns |
| CS(=O)(=O)N(CCCc1nc(C(=O)O)cs1)CCOc1cc(Cl)cc(Cl)c1 | – | – | change in vivo at 0.1 % [1, 4]: -8%; ΔΔEmax (mm Hg) [1, 5]: −4.3 mm Hg; Tmax [1, 6]: 2 h |
| O=C(O)CCc1cccc(CN(Cc2ccc(-c3cccnc3)cc2)S(=O)(=O)c2ccccc2)c1 | – | – | change in vivo at 0.1 % [1, 4]: -10%; ΔΔEmax (mm Hg) [1, 5]: −3.0 mm Hg; Tmax [1, 6]: 4 h |
| O=C(O)COc1cccc(CN(Cc2ccc(-c3ncccn3)cc2)S(=O)(=O)c2ccccn2)c1 | – | – | ΔΔEmax (mm Hg) [1, 5]: ns; ΔΔEmax (%) [1, 7]: ns |
| CC(C)OC(=O)c1csc(CCCN(CCOc2cc(Cl)cc(Cl)c2)S(C)(=O)=O)c1 | – | – | ΔΔEmax (mmHg) ([1]; isopropylesters, OHT primates, both eyes): −8 (both eyes) mmHg; Tmax [1, 8]: 4 to 6 h |
| CC(C)OC(=O)CCc1cccc(CN(Cc2ccc(-c3cccnc3)cc2)S(=O)(=O)c2ccccc2)c1 [Example 8] | 5.35 | < 12.4 | – |
| CC(C)OC(=O)CCc1cccc(CN(Cc2ccc(-c3ncccn3)cc2)S(=O)(=O)c2cccnc2)c1 [Example 13] | 3.1 | < 10 | – |
| CC(C)OC(=O)CCc1cccc(CN(Cc2ccc(-c3ncccn3)cc2)S(=O)(=O)c2ccccc2)c1 [Example 14] | 3.1 | < 10 | – |
| CC(C)OC(=O)CCc1cccc(CN(Cc2ccc(-c3ncccn3)cc2)S(=O)(=O)c2ccccn2)c1 [Example 15] | 4.9 | < 10 | – |
| CC(C)OC(=O)Cc1cccc(CN(Cc2ccc(-c3ncccn3)cc2)S(=O)(=O)c2cccnc2)c1 [Example 17] | 7.8 | 3.9 | – |
| CC(C)OC(=O)CCc1cccc(CN(Cc2ccc(-n3cccn3)cc2)S(=O)(=O)c2cccnc2)c1 [Example 20] | 51.5 | < 10 | – |
| O=C(O)COc1cccc(CN(Cc2ccc(-n3cccn3)cc2)S(=O)(=O)c2cccnc2)c1 [drawing 52] | – | – | ΔΔEmax (mm Hg) [1, 5]: −7.0 mm Hg; ΔΔEmax (%) [1, 7]: −21%; Tmax [1, 6]: 4 h |
| O=C(O)COc1cccc(CN(Cc2ccc(-n3cccn3)cc2)S(=O)(=O)c2cccnc2)c1 [drawing 60] | – | – | ΔΔEmax (mm Hg) [1, 5]: −2.6 mm Hg; ΔΔEmax (%) [1, 7]: −6%; Tmax [1, 6]: 4 h |
| CC(C)OC(=O)c1ccc(CCCN(CCCOc2cc(Cl)cc(Cl)c2)S(C)(=O)=O)s1 [drawing 62] | – | – | ΔΔEmax (%) ([1]; isopropylesters, OHT primates, OHT eye): ns; ΔΔEmax (mmHg) ([1]; isopropylesters, OHT primates, OHT eye, 0.1 mg/ml topical): ns; Tmax (h) [1, 8]: ns |

More lines, main results first:

| EC50 (EP2) [nM] | IC50 [3] [nM] | Compound | further results |
| --- | --- | --- | --- |
| 1.48 | 10 | CC(C)OC(=O)COc1cccc(CN(Cc2ccc(-n3cccn3)cc2)S(=O)(=O)c2cccnc2)c1 [Example 1, isopropyl [3-({[4-(1H-pyrazol-1-yl)benzyl](pyridin-3-yl-sulfonyl)amino}methyl)phenoxy]acetate] | solid form [2]: crystalline form; ΔΔEmax (%) (glaucomatous dogs): −33% @ 6 h; ΔΔEmax (mmHg) (glaucomatous dogs): −7.0 1.2 mmHg @ 6 h |
| 8.15 | 3.22 | CC(C)OC(=O)c1ccc(CCCN(CCCOc2cc(Cl)cc(Cl)c2)S(C)(=O)=O)s1 [Example 2] | – |
| 1.48 | 10 | COC(=O)COc1cccc(CN(Cc2ccc(-n3cccn3)cc2)S(=O)(=O)c2cccnc2)c1 [Example 3] | – |
| 5.35 | < 12.4 | CC(C)(C)OC(=O)CCc1cccc(CN(Cc2ccc(-c3cccnc3)cc2)S(=O)(=O)c2ccccc2)c1 [Example 4] | – |
| 4.8 | 4.42 | CC(C)OC(=O)c1ccc(CCCN(CCOc2cc(Cl)cc(Cl)c2)S(C)(=O)=O)s1 [Example 5] | – |
| 7 | 6.6 | CC(C)OC(=O)CCCCCCN(CCCc1cc(Cl)cc(Cl)c1)S(C)(=O)=O [Example 6] | – |
| 18 | 5.3 | CC(C)OC(=O)c1csc(CCCN(CCOc2cc(Cl)cc(Cl)c2)S(C)(=O)=O)n1 [Example 7] | – |
| 10 | 1.48 | CCOC(=O)COc1cccc(CN(Cc2ccc(-n3cccn3)cc2)S(=O)(=O)c2cccnc2)c1 [Example 9] | – |
| 8.15 | 3.22 | CC(C)(C)OC(=O)c1ccc(CCCN(CCCOc2cc(Cl)cc(Cl)c2)S(C)(=O)=O)s1 [Example 10] | – |
| 12 | 26 | CC(C)OC(=O)COc1cccc(CN(Cc2ccc(-c3nccs3)cc2)S(=O)(=O)c2cn(C)cn2)c1 [Example 12] | – |
| 0.85 | 3 | CC(C)OC(=O)COc1cccc(CN(Cc2ccc(-c3nccs3)cc2)S(=O)(=O)c2cccnc2)c1 [Example 16] | – |
| 12 | < 10 | CC(C)OC(=O)COc1cccc(CN(Cc2ccc(-n3cccn3)cc2)S(=O)(=O)c2ccccn2)c1 [Example 18] | – |
| 4.1 | 7.6 | CC(C)OC(=O)COc1cccc(CN(Cc2ccc(-c3ccccn3)cc2)S(=O)(=O)c2cccnc2)c1 [Example 19] | – |
| 2.2 | 2.2 | CC(C)OC(=O)Cc1cccc(CN(Cc2ccc(-c3nccs3)cc2)S(=O)(=O)c2cccnc2)c1 [Example 21] | – |
| 3.3 | 15.7 | CC(C)OC(=O)CCc1cccc(CN(Cc2ccc(-c3ncccn3)cc2)S(=O)(=O)c2ccc(Cl)cc2)c1 [Example 22] | – |
| 5.4 | 22 | CC(C)OC(=O)COc1cccc(CN(Cc2ccc(-c3ncccn3)cc2)S(=O)(=O)c2cccnc2)c1 [Example 23] | – |
| 54 | 6.64 | CC(C)OC(=O)c1csc(CCCN(CCCc2cccc(Cl)c2)S(C)(=O)=O)n1 [Example 24] | – |
| 5.9 | < 10 | CC(C)OC(=O)CCc1cccc(CN(Cc2ccc(-n3cccn3)cc2)S(=O)(=O)c2nccs2)c1 [Example 25] | – |
| 6.4 | < 10 | CC(C)OC(=O)CCc1cccc(CN(Cc2ccc(-c3ncccn3)cc2)S(=O)(=O)c2nccs2)c1 [Example 26] | – |
| 1.48 | 10 | CC(C)(C)OC(=O)COc1cccc(CN(Cc2ccc(-n3cccn3)cc2)S(=O)(=O)c2cccnc2)c1 [Example C12, t-butyl [3-({[4-(1H-pyrazol-1-yl)benzyl](pyridin-3-yl-sulfonyl)amino}methyl)phenoxy]acetate, reference compound] | solid form [2]: gummy material; ΔΔEmax (%) (glaucomatous dogs): −34% @ 6 h; ΔΔEmax (mmHg) (glaucomatous dogs): −8.0 1.7 mmHg @ 6 h |
